The subject of assay [1] is Human Umbilical Vein Endothelial Cell (HUVEC). Kind of assay: Inhibitory effect on growth of human umbilical vein endothelial cell (HUVEC), MTS. The format is cell-based. The settings on record: Homo sapiens, 96 h, 10 ng/ml VEGF, absorbance 490 nm.
The subject of assay [2] is colon and rectal cancer cell line, SW-620. The assay can be described thus: Inhibitory effect on growth of cancer cell line SW-620, SRB. The format is cell-based. The settings on record: Homo sapiens, 72 h, not having overexpressed EGFR and EGFR2. A digest of the protocol:
(§1)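 Cells were cultured in DMEM with 10% FBS. Compounds were applied at 10 μM with 10-fold serial dilution to 10^−4, DMSO <1%, for 72 h at 37 °C. Cells were then TCA-fixed and stained with 0.4% SRB, and absorbance was read at 570 nm after solubilisation in 10 mM Tris base.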

Another assay has as its target EGFR1 (HER-1) (Homo sapiens (Human), UniProt P00533). Kind of assay: EGFR1 (HER-1) enzyme assay, fluorescence polarization. It is filed as biochemical. To be noted: 100 μM ATP, poly(Glu, Tyr) substrate.
Assay [3] deals with breast cancer cell line, SK-Br3. Kind of assay: Inhibitory effect on growth of cancer cell line SK-Br3, SRB. It is filed as cell-based. To be noted: Homo sapiens, SK-BR-3, 72 h, overexpressed EGFR2 (HER-2). A digest of the protocol: as §1
Another assay has as its target VEGFR2 (KDR) (Homo sapiens (Human), UniProt P35968). The assay can be described thus: VEGFR2 (KDR) enzyme assay, fluorescence polarization. The format is biochemical. The settings on record: 5 μM ATP, poly(Glu, Tyr) substrate. A digest of the protocol: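 Autophosphorylation read by fluorescence polarization: VEGFR2 (Proquinase) at 200 ng/10 μl with 5 μM ATP and 10 ng/ml poly(Glu,Tyr) 4:1, in 20 mM HEPES pH 7.4, 5 mM MgCl2, 2 mM MnCl2, 50 μM Na3VO4. Reaction 1 h at room temperature, EDTA stop, then anti-phosphotyrosine antibody/tracer for 30 min in the dark.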

Assay [4] has as its system skin cancer cell line, A431. The assay can be described thus: Inhibitory effect on growth of cancer cell line A431, SRB. The format is cell-based. The settings on record: Homo sapiens, A-431, 72 h, overexpressed EGFR1 (HER-1). The essentials: as §1

pIC50: −log10 of the molar value.

Sequence of EGFR1 (HER-1) (P00533 25-1210): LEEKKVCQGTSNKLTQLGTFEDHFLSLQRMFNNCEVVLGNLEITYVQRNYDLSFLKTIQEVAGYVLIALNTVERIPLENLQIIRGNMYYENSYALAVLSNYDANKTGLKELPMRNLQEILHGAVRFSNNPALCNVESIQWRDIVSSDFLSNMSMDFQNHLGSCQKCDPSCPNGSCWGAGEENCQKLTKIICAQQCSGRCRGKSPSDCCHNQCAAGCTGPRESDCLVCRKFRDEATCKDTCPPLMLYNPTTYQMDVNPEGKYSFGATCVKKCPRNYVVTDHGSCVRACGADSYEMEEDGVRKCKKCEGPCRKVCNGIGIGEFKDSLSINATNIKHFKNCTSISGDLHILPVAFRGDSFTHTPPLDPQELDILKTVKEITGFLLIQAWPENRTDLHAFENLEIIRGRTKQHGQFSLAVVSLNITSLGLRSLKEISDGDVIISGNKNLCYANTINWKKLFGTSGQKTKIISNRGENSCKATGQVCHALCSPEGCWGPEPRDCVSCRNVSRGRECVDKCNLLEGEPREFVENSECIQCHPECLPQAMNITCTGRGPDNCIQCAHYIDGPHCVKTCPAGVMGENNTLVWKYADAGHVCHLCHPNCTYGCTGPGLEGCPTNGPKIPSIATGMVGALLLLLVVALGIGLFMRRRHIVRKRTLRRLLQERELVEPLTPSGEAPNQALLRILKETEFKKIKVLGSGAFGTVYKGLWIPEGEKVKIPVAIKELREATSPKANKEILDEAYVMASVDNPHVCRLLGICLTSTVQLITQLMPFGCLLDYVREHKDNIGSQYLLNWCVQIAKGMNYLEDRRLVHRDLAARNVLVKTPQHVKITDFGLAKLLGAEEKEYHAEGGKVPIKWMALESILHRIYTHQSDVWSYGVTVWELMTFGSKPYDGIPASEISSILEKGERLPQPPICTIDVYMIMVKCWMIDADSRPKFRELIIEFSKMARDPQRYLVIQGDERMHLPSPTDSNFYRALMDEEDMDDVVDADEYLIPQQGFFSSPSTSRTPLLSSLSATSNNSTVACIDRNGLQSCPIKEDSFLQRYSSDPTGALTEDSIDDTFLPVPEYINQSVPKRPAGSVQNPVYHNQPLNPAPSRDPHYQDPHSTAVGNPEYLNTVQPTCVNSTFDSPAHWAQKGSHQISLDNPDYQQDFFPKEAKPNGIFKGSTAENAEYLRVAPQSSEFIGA
Sequence of VEGFR2 (KDR) (P35968 20-1356): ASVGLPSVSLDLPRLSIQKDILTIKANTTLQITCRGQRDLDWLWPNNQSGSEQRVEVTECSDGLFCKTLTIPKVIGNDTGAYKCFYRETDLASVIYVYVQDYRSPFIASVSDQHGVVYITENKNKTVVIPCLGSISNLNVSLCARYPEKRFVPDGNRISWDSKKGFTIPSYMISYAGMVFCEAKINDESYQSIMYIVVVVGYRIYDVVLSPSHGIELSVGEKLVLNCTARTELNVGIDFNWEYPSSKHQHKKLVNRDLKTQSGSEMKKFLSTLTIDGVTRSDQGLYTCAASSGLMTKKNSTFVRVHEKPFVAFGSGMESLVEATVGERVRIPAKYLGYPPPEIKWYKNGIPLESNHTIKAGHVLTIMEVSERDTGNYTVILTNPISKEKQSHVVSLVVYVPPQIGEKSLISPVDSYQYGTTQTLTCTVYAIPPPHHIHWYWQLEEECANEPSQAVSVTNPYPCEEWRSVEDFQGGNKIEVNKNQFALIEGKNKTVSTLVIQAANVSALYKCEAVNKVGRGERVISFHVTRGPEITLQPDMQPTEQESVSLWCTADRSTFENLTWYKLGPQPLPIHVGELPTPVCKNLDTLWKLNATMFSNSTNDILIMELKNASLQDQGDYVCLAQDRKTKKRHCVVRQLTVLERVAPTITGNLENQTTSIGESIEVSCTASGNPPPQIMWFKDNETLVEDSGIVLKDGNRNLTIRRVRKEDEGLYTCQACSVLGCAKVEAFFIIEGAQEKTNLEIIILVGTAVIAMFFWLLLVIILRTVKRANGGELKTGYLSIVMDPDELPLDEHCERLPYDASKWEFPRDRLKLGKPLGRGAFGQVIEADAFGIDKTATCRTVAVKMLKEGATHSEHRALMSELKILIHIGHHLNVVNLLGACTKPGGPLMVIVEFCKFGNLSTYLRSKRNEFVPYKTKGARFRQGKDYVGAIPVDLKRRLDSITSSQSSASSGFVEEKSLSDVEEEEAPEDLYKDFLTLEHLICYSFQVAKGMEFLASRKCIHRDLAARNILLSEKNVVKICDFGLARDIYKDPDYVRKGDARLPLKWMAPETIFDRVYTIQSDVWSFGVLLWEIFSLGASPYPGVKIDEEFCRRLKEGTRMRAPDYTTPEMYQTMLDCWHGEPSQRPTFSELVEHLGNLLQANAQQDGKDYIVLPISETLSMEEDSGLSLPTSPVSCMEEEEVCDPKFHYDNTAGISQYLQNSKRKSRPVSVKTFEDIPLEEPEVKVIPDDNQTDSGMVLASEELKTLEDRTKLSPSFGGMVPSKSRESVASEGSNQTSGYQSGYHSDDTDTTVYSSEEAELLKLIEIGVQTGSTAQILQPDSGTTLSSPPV

For the molecule `C=CC(=O)Nc1cc2c(Nc3ccc(Br)cc3F)ncnc2cc1OCC(C)NC(C)=O` (stereo not drawn) [Example 81, N-[7-(2-acetylamino-propoxy)-4-(4-bromo-2-fluoro-phenylamino)-quinazolin-6-yl]-acrylamide], the pIC50 was 6.69 in assay [1]; 5.60 in assay [2]; 6.81 against EGFR1 (HER-1); 6.05 in assay [3]; 7.39 on VEGFR2 (KDR); 6.44 in assay [4].

For `C=CC(=O)Nc1cc2c(Nc3ccc(Br)cc3F)ncnc2cc1OC[C@@H](C)NC(C)=O` [Example 82, (R)—N-[7-(2-acetylamino-propoxy)-4-(4-bromo-2-fluoro-phenylamino)-quinazolin-6-yl]-acrylamide], the pIC50 in assay [1] is 6.69; in assay [2] it was 5.00; against EGFR1 (HER-1), 7.54; in assay [3], 7.22; on VEGFR2 (KDR), 6.80; in assay [4] it was 7.46.

For `C=CC(=O)Nc1cc2c(Nc3ccc(Br)cc3F)ncnc2cc1OC[C@H](C)NC(C)=O` [Example 83, (S)—N-[7-(2-acetylamino-propoxy)-4-(4-bromo-2-fluoro-phenylamino)-quinazolin-6-yl]-acrylamide], the pIC50 is 6.97 in assay [1]; 5.54 in assay [2]; 7.01 on EGFR1 (HER-1); 6.03 in assay [3]; 7.15 against VEGFR2 (KDR); 6.95 in assay [4].

For the molecule `C=CC(=O)Nc1cc2c(Nc3ccc(Br)cc3F)ncnc2cc1OCC(C)NC(=O)CC` (stereo not drawn) [Example 84, N-[4-(4-bromo-2-fluoro-phenylamino)-7-(2-propionylamino-propoxy)-quinazolin-6-yl]-acrylamide], the pIC50 in assay [1] was 6.95; in assay [2], 5.00; at EGFR1 (HER-1), 7.59; in assay [3], 7.15; on VEGFR2 (KDR) it was 7.03; in assay [4], 7.47.

Turning to `C=CC(=O)Nc1cc2c(Nc3ccc(Br)cc3F)ncnc2cc1OCC(C)NC(=O)NCCC` (stereo not drawn) [Example 85, N-{4-(4-bromo-2-fluoro-phenylamino)-7-[2-(3-propyl-ureido)-propoxy]-quinazolin-6-yl}-acrylamide], the pIC50 in assay [1] was 6.02; in assay [2] it was 5.56; against EGFR1 (HER-1), 7.54; in assay [3] it was 6.75; against VEGFR2 (KDR), 6.11; in assay [4], 7.42.

Take `C=CC(=O)Nc1cc2c(Nc3ccc(Br)cc3F)ncnc2cc1OCC(CC)NC(C)=O` (stereo not drawn) [Example 86, N-[7-(2-acetylamino-butoxy)-4-(4-bromo-2-fluoro-phenylamino)-quinazolin-6-yl]-acrylamide]: the pIC50 in assay [1] was 6.93; in assay [2], 6.14; against EGFR1 (HER-1), 7.16; in assay [3] it was 6.68; at VEGFR2 (KDR), 7.01; in assay [4], 7.15.

`C=CC(=O)Nc1cc2c(Nc3ccc(Br)cc3F)ncnc2cc1OCCCNC(=O)CC` [Example 87, N-[4-(4-bromo-2-fluoro-phenylamino)-7-(3-propionylamino-propoxy)-quinazolin-6-yl]-acrylamide]: the pIC50 was 6.16 in assay [1]; 5.00 in assay [2]; 7.40 at EGFR1 (HER-1); 6.54 in assay [3]; 6.16 against VEGFR2 (KDR); 7.36 in assay [4].

Take `C=CC(=O)Nc1cc2c(Nc3ccc(Br)cc3F)ncnc2cc1OCCNc1nccs1` [Example 90, N-{4-(4-bromo-2-fluoro-phenylamino)-7-[2-(thiazol-2-ylamino)-ethoxy]-quinazolin-6-yl}-acrylamide]: the pIC50 in assay [1] was 6.23; in assay [2], 5.00; against EGFR1 (HER-1), 6.53; in assay [3] it was 5.89; against VEGFR2 (KDR) it was 6.32; in assay [4], 6.51.

Consider `C=CC(=O)Nc1cc2c(Nc3ccc(Br)cc3F)ncnc2cc1OCC1CNC(=O)O1` (stereo not drawn) [Example 91, N-[4-(4-bromo-2-fluoro-phenylamino)-7-(2-oxo-oxazolidin-5-ylmethoxy)-quinazolin-6-yl]-acrylamide], for which the pIC50 in assay [1] is 6.16; in assay [2], 5.55; on EGFR1 (HER-1), 7.77; in assay [3] it was 6.47; against VEGFR2 (KDR), 6.23; in assay [4], 7.82.

For the molecule `C=CC(=O)Nc1cc2c(Nc3ccc(Br)cc3F)ncnc2cc1OCCNC(=O)c1cccs1` [Example 92, thiophene-2-carboxylic acid {2-[6-acryloylamino-4-(4-bromo-2-fluoro-phenylamino)-quinazolin-7-yloxy]-ethyl}-amide], the pIC50 in assay [1] is 6.59; in assay [2], 6.14; on EGFR1 (HER-1), 7.33; in assay [3] it was 6.36; on VEGFR2 (KDR), 6.89; in assay [4], 7.24.

Consider `C=CC(=O)Nc1cc2c(Nc3ccc(Br)cc3F)ncnc2cc1OCCNC(=O)N1CCOCC1` [Example 93, morpholine-4-carboxylic acid {2-[6-acryloylamino-4-(4-bromo-2-fluoro-phenylamino)-quinazolin-7-yloxy]-ethyl}-amide], for which the pIC50 in assay [1] was 6.57; in assay [2] it was 5.00; at EGFR1 (HER-1) it was 7.44; in assay [3], 7.28; on VEGFR2 (KDR), 6.71; in assay [4], 7.34.

Turning to `C=CC(=O)Nc1cc2c(Nc3ccc(Br)cc3F)ncnc2cc1OCCNC(=O)N1CCNCC1` [Example 94, piperazine-1-carboxylic acid {2-[6-acryloylamino-4-(4-bromo-2-fluoro-phenylamino)-quinazolin-7-yloxy]-ethyl}-amide], the pIC50 in assay [1] is 6.16; in assay [2], 5.63; against EGFR1 (HER-1), 6.16; in assay [3], 5.59; at VEGFR2 (KDR), 6.16; in assay [4], 6.13.

For `C=CC(=O)Nc1cc2c(Nc3ccc(Br)cc3F)ncnc2cc1OCCNC(=O)N1CCN(C(C)=O)CC1` [Example 95, 4-acetyl-piperazine-1-carboxylic acid {2-[6-acryloylamino-4-(4-bromo-2-fluoro-phenylamino)-quinazolin-7-yloxy]-ethyl}-amide], the pIC50 in assay [1] was 6.10; in assay [2], 5.00; at EGFR1 (HER-1) it was 7.12; in assay [3], 6.63; against VEGFR2 (KDR), 6.11; in assay [4] it was 7.07.

For the molecule `C=CC(=O)Nc1cc2c(Nc3ccc(Br)cc3F)ncnc2cc1OCCNC(=O)N1CCN(C)CC1` [Example 96, 4-methyl-piperazine-1-carboxylic acid {2-[6-acryloylamino-4-(4-bromo-2-fluoro-phenylamino)-quinazolin-7-yloxy]-ethyl}-amide], the pIC50 in assay [1] is 6.45; in assay [2], 5.00; at EGFR1 (HER-1), 7.89; in assay [3], 6.62; against VEGFR2 (KDR), 6.45; in assay [4] it was 7.68.

For the molecule `C=CC(=O)Nc1cc2c(Nc3ccc(Br)cc3F)ncnc2cc1OCCNC(=O)C1CCCN1` (stereo not drawn) [Example 97, pyrrolidine-2-carboxylic acid {2-[6-acryloylamino-4-(4-bromo-2-fluoro-phenylamino)-quinazolin-7-yloxy]-ethyl}-amide], the pIC50 was 6.06 in assay [1]; 5.56 in assay [2]; 5.71 on EGFR1 (HER-1); 5.00 in assay [3]; 6.18 against VEGFR2 (KDR); 5.62 in assay [4].

Take `C=CC(=O)Nc1cc2c(Nc3ccc(Br)cc3F)ncnc2cc1OCCNC(=O)CN1CCCCC1` [Example 101, N-{4-(4-bromo-2-fluoro-phenylamino)-7-[2-(2-piperidin-1-yl-acetylamino)-ethoxy]-quinazolin-6-yl}-acrylamide]: the pIC50 in assay [1] was 6.02; in assay [2] it was 5.53; against EGFR1 (HER-1) it was 8.15; in assay [3], 7.12; against VEGFR2 (KDR), 6.07; in assay [4], 8.10.

Take `C=CC(=O)Nc1cc2c(Nc3ccc(Br)cc3F)ncnc2cc1OCCNC(=O)CN1CCN(C)CC1` [Example 102, N-(4-(4-bromo-2-fluoro-phenylamino)-7-{2-[2-(4-methyl-piperazin-1-yl)-acetylamino]-ethoxy}-quinazolin-6-yl)-acrylamide]: the pIC50 is 6.17 in assay [1]; 6.14 in assay [2]; 7.92 at EGFR1 (HER-1); 6.95 in assay [3]; 6.18 on VEGFR2 (KDR); 7.82 in assay [4].

Turning to `C=CC(=O)Nc1cc2c(Nc3ccc(Br)cc3F)ncnc2cc1OCCNC(=O)CN1CCOCC1` [Example 103, N-{4-(4-bromo-2-fluoro-phenylamino)-7-[2-(2-morpholin-4-yl-acetylamino)-ethoxy]-quinazolin-6-yl}-acrylamide], the pIC50 was 6.03 in assay [1]; 5.43 in assay [2]; 7.49 against EGFR1 (HER-1); 6.40 in assay [3]; 6.11 against VEGFR2 (KDR); 7.46 in assay [4].

Values taken from patent US8846699B2, “Quinazoline derivatives as a multiplex inhibitor and method for the preparation thereof” (Hanmi Pharm. Co., Ltd., priority 2005, dated 2014).
